Earlier results in patent publication US20220218650A1, “COMPOSITION AND METHOD FOR TREATING PAIN” (Zelira Therapeutics Operations Pty Ltd, priority 2018, published 2022).

Details: treatment group (5 mg THC); control group 74 mg; difference not statistically significant (n=105)

## CCCCCc1cc(O)c2c(c1)OC(C)(C)[C@@H]1CCC(C)=C[C@@H]21 [dronabinol]
  Median dose of micro-opioid agonist piritramide in the two days post surgery: 54 mg
